Assay [1] concerns the target T1, human TLR7 (Homo sapiens, UniProt Q9NYK1).
T1 construct: host or cells: HEK293 (HEK-Blue hTLR7)
T1 sequence (Q9NYK1 27-1049): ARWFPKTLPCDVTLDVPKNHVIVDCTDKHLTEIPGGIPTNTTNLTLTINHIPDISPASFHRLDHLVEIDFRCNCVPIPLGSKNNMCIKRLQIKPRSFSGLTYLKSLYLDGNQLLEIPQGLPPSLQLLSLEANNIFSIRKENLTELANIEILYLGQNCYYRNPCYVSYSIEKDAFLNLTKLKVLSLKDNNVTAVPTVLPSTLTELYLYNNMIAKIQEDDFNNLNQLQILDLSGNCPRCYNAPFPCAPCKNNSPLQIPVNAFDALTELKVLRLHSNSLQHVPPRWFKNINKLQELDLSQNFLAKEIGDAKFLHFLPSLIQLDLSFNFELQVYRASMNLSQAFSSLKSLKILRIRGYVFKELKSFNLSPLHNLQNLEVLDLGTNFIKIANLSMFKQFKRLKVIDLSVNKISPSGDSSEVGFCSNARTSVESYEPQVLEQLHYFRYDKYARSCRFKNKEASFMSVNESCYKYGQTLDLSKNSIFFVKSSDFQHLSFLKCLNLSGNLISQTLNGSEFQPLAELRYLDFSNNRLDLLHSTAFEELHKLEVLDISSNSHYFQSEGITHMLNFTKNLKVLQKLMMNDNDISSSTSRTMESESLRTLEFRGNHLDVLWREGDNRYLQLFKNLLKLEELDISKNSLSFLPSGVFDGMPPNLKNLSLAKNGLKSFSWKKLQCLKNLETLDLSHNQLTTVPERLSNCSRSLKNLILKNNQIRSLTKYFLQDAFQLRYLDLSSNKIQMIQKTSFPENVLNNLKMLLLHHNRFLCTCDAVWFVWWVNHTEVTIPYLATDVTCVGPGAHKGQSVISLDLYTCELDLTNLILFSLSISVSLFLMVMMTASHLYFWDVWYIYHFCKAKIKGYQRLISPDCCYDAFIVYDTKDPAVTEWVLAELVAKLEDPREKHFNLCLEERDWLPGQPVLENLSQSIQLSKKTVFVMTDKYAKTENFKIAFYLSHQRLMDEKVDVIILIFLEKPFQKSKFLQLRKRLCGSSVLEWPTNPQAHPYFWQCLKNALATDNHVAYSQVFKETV
In words: HEK-Blue hTLR7 reporter cell assay (SEAP, NF-kB/AP-1) for stimulation of human TLR7. The assay is classed as cell-based. To be noted: HEK-Blue hTLR7 cells; for EC50: 24 h incubation, SEAP readout, read-out: TLR7_EC50. The protocol:
(§1) The below tests, involving measuring the in vitro activity of some compounds of the disclosure on TLR7 and TLR8, were carried out using the HEK-Blue™ cells as reporter.
The activity described below, with respect to TLR7, TLR8, IFN-α2a, IL-6, IL29 and TNF-α, is given by the half maximal effective concentration (EC50), which corresponds to the concentration required to obtain a 50% of the activation. The lower the EC50, the less the concentration of the compound is required to produce 50% of maximum activation and the higher the potency.
(§2) In Vitro Assay for Studying the Stimulation of Human TLR7 and TLR8:
(§3) HEK-Blue™ hTLR7 Cells (#hkb-htlr7) and HEK-Blue™ hTLR8 Cells (#hkb-htlr8) from InvivoGen were used according to the manufacturer's instructions. These Reporter HEK293 cells were obtained by co-transfection of the hTLR7 or TLR8 gene and an optimized Secreted Embryonic Alkaline Phosphatase (SEAP) reporter gene which is placed under the control of the IFN-β minimal promoter fused to five NF-κB and AP-1-binding sites. Stimulation with a TLR7/8 ligand activates NF-kB and AP-1 which induce the production of SEAP. The cells are seeded in 96-well plate at 3.10E4 cells/well and incubated 18 to 24 h at 37° C., 5% CO2 before adding the compounds to evaluate. The cells are subsequently incubated with 3-fold serial dilutions of each of the compounds (0.01 to 20 μM) for 24 hours at 37° C., 5% CO2. Next, 20 μL of the supernatant is harvested and incubated with 200 μL of QUANTI-Blue™ Solution.

Assay [2] deals with T2, human TLR8 (Homo sapiens, UniProt Q9NR97).
T2 construct: host or cells: HEK293 (HEK-Blue hTLR8)
T2 sequence (Q9NR97 27-1041): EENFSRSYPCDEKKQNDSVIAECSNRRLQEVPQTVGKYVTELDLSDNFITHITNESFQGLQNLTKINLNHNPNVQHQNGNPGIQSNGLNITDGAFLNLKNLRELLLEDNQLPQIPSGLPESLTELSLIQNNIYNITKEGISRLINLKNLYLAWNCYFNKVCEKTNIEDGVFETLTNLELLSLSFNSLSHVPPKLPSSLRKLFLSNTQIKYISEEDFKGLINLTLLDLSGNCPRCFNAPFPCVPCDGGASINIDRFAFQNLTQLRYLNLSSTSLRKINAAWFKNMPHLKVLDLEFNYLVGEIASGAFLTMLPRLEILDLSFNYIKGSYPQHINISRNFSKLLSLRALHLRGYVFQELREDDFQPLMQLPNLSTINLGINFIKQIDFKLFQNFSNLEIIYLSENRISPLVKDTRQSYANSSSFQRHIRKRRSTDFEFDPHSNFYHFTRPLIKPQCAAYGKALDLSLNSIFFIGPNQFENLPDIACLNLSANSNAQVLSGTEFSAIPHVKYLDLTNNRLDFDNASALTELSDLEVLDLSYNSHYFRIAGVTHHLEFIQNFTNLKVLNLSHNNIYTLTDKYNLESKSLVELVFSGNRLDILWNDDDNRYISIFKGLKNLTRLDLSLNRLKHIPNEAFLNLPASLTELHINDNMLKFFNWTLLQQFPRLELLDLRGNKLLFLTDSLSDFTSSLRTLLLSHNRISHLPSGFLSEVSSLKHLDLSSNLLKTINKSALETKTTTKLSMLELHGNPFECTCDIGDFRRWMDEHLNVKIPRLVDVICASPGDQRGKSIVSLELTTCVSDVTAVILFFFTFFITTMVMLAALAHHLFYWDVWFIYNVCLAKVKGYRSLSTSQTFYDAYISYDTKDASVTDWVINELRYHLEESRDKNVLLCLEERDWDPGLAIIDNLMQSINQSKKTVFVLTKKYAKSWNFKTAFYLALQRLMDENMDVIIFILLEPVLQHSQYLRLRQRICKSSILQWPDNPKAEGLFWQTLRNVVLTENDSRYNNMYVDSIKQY
In words: HEK-Blue hTLR8 reporter cell assay (SEAP, NF-kB/AP-1) for stimulation of human TLR8. The assay is classed as cell-based. To be noted: HEK-Blue hTLR8 cells; for EC50: 24 h incubation, SEAP readout, read-out: TLR8_EC50; for activation at 20 µM: 24 h, at 20000 nM. As to the method:
as §1, §2
as §3, with “The cells are subsequently incubated with 3-fold serial dilutions of each of the compounds (0.01 to 20 μM) for 24 hours at 37° C., 5% CO2.” left out

Counter-ions that a name gives are not always drawn.

As for `CCCCc1nc2c(N)nnc(OC(C)C)c2n1Cc1ccc(CNCCOC)cc1` [Compound 104, 2-butyl-7-isopropoxy-1-(4-(((2-methoxyethyl)amino)methyl)benzyl)-1H-imidazo[4,5-d]pyridazin-4-amine], the EC50 in assay [1] turned out to be 22 nM; in assay [2] it was 546 nM.

As to `CCCCc1nc2c(N)nnc(OC(C)C)c2n1Cc1ccc(CNCCOCCOCCOC)cc1` [Compound 120, 1-(4-(5,8,11-trioxa-2-azadodecyl)benzyl)-2-butyl-7-isopropoxy-1H-imidazo[4,5-d]pyridazin-4-amine], the EC50 in assay [1] turned out to be 133 nM; in assay [2], 14400 nM.

As for `CCCCc1nc2c(N)nnc(OC(C)CC)c2n1Cc1ccc(OC)cc1` (stereo not shown) [Compound 7, 7-(sec-butoxy)-2-butyl-1-(4-methoxybenzyl)-1H-imidazo[4,5-d]pyridazin-4-amine], the EC50 in assay [1] was 46 nM; in assay [2], 2100 nM.

Take `CCCCc1nc2c(N)nnc(NC(C)C)c2n1C` [Compound 88, 2-butyl-N7-isopropyl-1-methyl-1H-imidazo[4,5-d]pyridazine-4,7-diamine]: the EC50 in assay [1] worked out at 2980 nM; in assay [2], 13600 nM.

For `CCCSc1nc2c(N)nnc(OC(C)C)c2n1Cc1ccc(CN)cc1` [Compound 161, 3-[[4-(aminomethyl)phenyl]methyl]-4-isopropoxy-2-propylsulfanyl-imidazo[4,5-d]pyridazin-7-amine], the EC50 in assay [1] came to 205 nM; in assay [2], 398 nM.

Turning to `CCCNc1nc2c(N)nnc(OC(C)C)c2n1Cc1ccc(CN)cc1` [Compound 163, 3-[[4-(aminomethyl)phenyl]methyl]-4-isopropoxy-N2-propyl-imidazo[4,5-d]pyridazine-2,7-diamine], the activation at 20 µM came to 16.7% in assay [1] (24 h, at 20000 nM) and 15.4% in assay [2].

For `CCCCc1nc2c(N)nnc(OC(C)C)c2n1C` [Compound 86, 2-butyl-7-isopropoxy-1-methyl-1H-imidazo[4,5-d]pyridazin-4-amine], the EC50 in assay [1] was 4400 nM; in assay [2], 6960 nM.

For `CCCCc1nc2c(N)nnc(OC3CC[S+]([O-])C3)c2n1Cc1ccc(OC)cc1` (single isomer, unassigned; isomer b) [Compound 69, 3-((4-amino-2-butyl-1-(4-methoxybenzyl)-1H-imidazo[4,5-d]pyridazin-7-yl)oxy)tetrahydrothiophene 1-oxide isomer B], the EC50 in assay [1] is 6760 nM; in assay [2], above 20000 nM.

In the case of `CCCCc1nc2c(N)nnc(-c3ccccc3)c2n1Cc1ccc(OC)cc1` [Compound 92, 2-butyl-1-(4-methoxybenzyl)-7-phenyl-1H-imidazo[4,5-d]pyridazin-4-amine], in assay [1], the EC50 amounted to 7970 nM. Further, the activation at 20 µM in assay [2] was determined as 15%.

For the compound `CCCCc1nc2c(N)nnc(N(C)Cc3ccc(CN4CCOCC4)cc3)c2n1C` [Compound 44, 2-butyl-N7,1-dimethyl-N7-(4-(morpholinomethyl)benzyl)-1H-imidazo[4,5-d]pyridazine-4,7-diamine], the EC50 in assay [1] was 1130 nM; in assay [2], 467 nM.

On to `CCCCc1nc2c(N)nnc(OC(C)C)c2n1C[C@H]1CC[C@H](CN)CC1` [Compound 19, 4-(aminomethyl)cyclohexyl)methyl)-2-butyl-7-isopropoxy-1H-imidazo[4,5-d]pyridazin-4-amine dihydrochloride], for which the EC50 in assay [1] was 32 nM; in assay [2] it was above 20000 nM.

`CCCCc1nc2c(N)nnc(-c3ccn(C)c3)c2n1Cc1ccc(OC)cc1` [Compound 11, 2-butyl-1-(4-methoxybenzyl)-7-(1-methyl-1H-pyrrol-3-yl)-1H-imidazo[4,5d]pyridazin-4-amine]: the EC50 is 192 nM in assay [1] and above 20000 nM in assay [2].

Regarding `CCCCc1nc2c(N)nnc(-c3ccc[nH]3)c2n1Cc1ccc(OC)cc1` [Compound 64, 2-butyl-1-(4-methoxybenzyl)-7-(1H-pyrrol-2-yl)-1H-imidazo[4,5-d]pyridazin-4-amine hydrochloride], the EC50 in assay [1] was 3100 nM; in assay [2], above 20000 nM.

As for `CCCCc1nc2c(N)nnc(OC(C)C)c2n1Cc1ccc(CN2CCCC2)cc1` [Compound 101, 2-butyl-7-isopropoxy-1-(4-(pyrrolidin-1-ylmethyl)benzyl)-1H-imidazo[4,5-d]pyridazin-4-amine], the EC50 in assay [1] came to 13 nM; in assay [2], 355 nM.

With `CCCCc1nc2c(N)nnc(OC(C)C)c2n1CCCCCCN(C(C)=O)C1CCOCC1` [Compound 148, N-[6-(7-amino-2-butyl-4-isopropoxy-imidazo[4,5-d]pyridazin-3-yl)hexyl]-N-tetrahydropyran-4-yl-acetamide], the EC50 in assay [1] was 34.6 nM; in assay [2], above 20000 nM.

`CCCCc1nc2c(N)nnc(CCC(C)C)c2n1Cc1ccc(OC)cc1` [Compound 13, 2-butyl-7-isopentyl-1-(4-methoxybenzyl)-1H-imidazo[4,5-d]pyridazin-4-amine]: the EC50 was 345 nM in assay [1] and above 20000 nM in assay [2].

In the case of `CCCCc1nc2c(N)nnc(NCCCc3ccco3)c2n1Cc1ccc(OC)cc1` [Compound 94, 2-butyl-N7-(3-(furan-2-yl)propyl)-1-(4-methoxybenzyl)-1H-imidazo[4,5-d]pyridazine-4,7-diamine], the EC50 in assay [1] came to 226 nM. This compound also yielded an activation at 20 µM in assay [2] of 11%.
